Assay results from patent US20040019068A1, “Novel remedies or preventives for angiostenosis” (priority 2000, published 2004).

What was measured:
[1] = clinical tests in Japan (RINSHO IYAKU, 12(1), 65 (1996)); cited from earlier work
[2] = biological target: T1, chymase (Canis lupus familiaris, UniProt P21842); assay: Chymase activity measurement in implanted blood vessel, dog bypass graft model; type: in vivo, dog (beagle); conditions: implanted blood vessel 28 days after bypass grafting; 5 mg/kg orally once a day in capsules for 33 days; angiotensin I substrate
T1 construct: An isolated blood vessel was combined with a 10-fold volume (w/v) of a 20 mM sodium phosphate buffer solution (pH7.4); from tissue; host or cells: implanted jugular vein graft of beagle dogs (homogenate, high-salt/detergent extract supernatant)
T1 sequence (P21842 22-249): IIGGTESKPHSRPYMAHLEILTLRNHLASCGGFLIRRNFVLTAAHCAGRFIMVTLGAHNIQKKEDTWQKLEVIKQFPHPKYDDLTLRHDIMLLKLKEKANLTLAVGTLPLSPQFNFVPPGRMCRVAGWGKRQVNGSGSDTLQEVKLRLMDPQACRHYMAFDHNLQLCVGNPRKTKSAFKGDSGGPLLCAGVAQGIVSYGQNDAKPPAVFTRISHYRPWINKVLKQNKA
Procedure: (A) Bypass Graft Model Preparation
(§1) 10 Male adult beagles (8 to 10 kg) purchased from NIPPON SLC were anesthetized with an intravenous administration of pentobarbital sodium at 35 mg/kg per animal. The cervical position was incised, and a right jugular vein was isolated and implanted into the carotid artery on the same side (J.Hum.Hypertens., 12 (suppl.1), S21(1999)). After implantation, the incision was sutured and the animal was raised as usual after coming out from the anesthetic.
(§2) 2 Groups each including 5 dogs, which had been subjected to the bypass grafting, were provided as the treatment group and the non-treatment group. In the treatment group, 2-(5-formylamino-6-oxo-2-phenyl-1,6-dihydropyrimidin-1-yl)-N-[2,3-dioxo-1-phenylmethyl-6-(2-pyridyloxy)]hexylacetamide (No. 10) was orally administered at a dose of 5 mg/kg once a day in capsules every day over a period of 33 days in total from 5 days before the bypass grafting through the day of the blood vessel sampling.
28 Days after the bypass grafting, 35 mg/kg of pentobarbital sodium was given intravenously to anesthetize. […]
The chymase activity was measured using angiotensin I as a substrate. […] Immediately after completion of the reaction, angiotensin II produced was quantified using a high performance liquid chromatography, and the chymase activity of the tissue was calculated.

[3] = system: implanted blood vessel (jugular vein implanted into the carotid artery); assay: Restenosis test in dog bypass graft model; type: in vivo, dog (beagle); conditions: implanted blood vessel 28 days after bypass grafting, 5 mg/kg orally once a day for 33 days
Procedure: as §1, §2
28 Days after the bypass grafting, 35 mg/kg of pentobarbital sodium was given intravenously to anesthetize. The implanted vein and the jugular vein on the other side were isolated, and each was cut at the center. […]
Based on the areas obtained in (D) described above and using the following equation, a vascular stenosis ratio of each individual animal was calculated. […]

[4] = system: balloon-injured right carotid artery; assay: Restenosis test in dog carotid artery balloon injury model; type: in vivo, dog (beagle); conditions: 28 days after balloon injury
Procedure: 21 Male adult beagles (9.4 to 11.4 kg) purchased from NIPPON NOSAN KOGYO were anesthetized with an intravenous administration of pentobarbital sodium at 30 mg/kg per animal. After immobilizing each animal in the spine position, the cervical part was incised and the right and left carotid arteries were exposed. After intravenous administration of 1000 U of heparin sodium, the right carotid artery branch was incised and the tip of a balloon catheter (Baxter 4 Fr, 40 cm) was inserted from the carotid artery to the aortic arch. With the balloon being inflated with application of pressure, the catheter was drawn out to injure the intima of the blood vessel. This procedure was repeated 5 times, and the balloon catheter was taken out, and the incision in the blood vessel was ligated. After suturing the skin incision, 1000 U of heparin sodium and 100 mg of ampicillin sodium were administered intramuscularly for the postoperative maintenance.
3 Groups each including 7 balloon-injured dogs were divided as the high dose treatment group, low dose treatment group and non-treatment group. 2-(5-Formylamino-6-oxo-2-phenyl-1,6-dihydropyrimidin-1-yl)-N-[2,3-dioxo-1-phenylmethyl-6-(2-pyridyloxy)]hexylacetamide (No. 10) was given at a dose of 1 mg/kg in the high dose treatment group and at 0.2 mg/kg in the low dose treatment group once a day in capsules every day over a period of 33 days in total from 5 days before the balloon injury through the day of the blood vessel sampling. In the non-treatment group, vacant capsules were given every day. In all groups, 50 ml or more of a tap water was given forcibly after administration.
Twenty eight (28) days after the balloon injury, 30 mg/kg of pentobarbital sodium was given intravenously to anesthetize. After exsanguination, the right carotid artery as an injured position was isolated, and cut into 3 pieces. About 5 mm was cut out of each of the sections which were distal, proximal and center with regard to the heart. The left carotid artery was also isolated as a non-injury position, from the center of which about 5 mm was cut off, and each was fixed in 10% formalin neutral buffer solution.
Each vascular tissue embedded in a paraffin was shaved into sections, and subjected to a Hematoxylin-Eoshin staining. The intraluminal area, the area inside the intima and the area inside the media were measured using Olympus Image Analyzer Model VM-30.
Based on the areas obtained in (D) described above and using the following equation, a vascular stenosis ratio and a vascular lumen ratio of each position were calculated, and the mean of the three positions was regarded as the value of each individual animal. In the equation, A is an area inside the intima, B is an intraluminal area and C is an area inside the media. […]

[5] = rat, in vivo, po, 100 mg/kg
Source text: A compound employed in the invention has a low toxicity, and any compound undergoes a characteristically low accumulation of the toxicity when given continuously. […] In addition, another characteristic advantage is the possibility of giving orally as a therapeutic or prophylactic agent for an angiostenosis.

[6] = High dose 1 mg/kg once a day in capsules for 33 days, p<0.05 vs non-treatment

Row | Compound | side effect in clinical tests [1] | Chymase activity [2] [mU/mg protein] | intima area [3] [mm2] | Vascular stenosis ratio ([3]; [(A-B)/(C-A)]x100) [%] | Vascular lumen ratio [4, 6] [%] | Vascular stenosis ratio [4, 6] [%] | Vascular stenosis ratio ([4]; Low dose 0.2 mg/kg once a day in capsules for 33 days) [%] | Vascular lumen ratio ([4]; Low dose 0.2 mg/kg once a day in capsules for 33 days, B/Cx100) [%] | toxicological change [5]
1 | COc1ccc(/C=C/C(=O)Nc2ccccc2C(=O)O)cc1OC [tranilast] | hepatic dysfunction as a highly frequent side effect |  |  |  |  |  |  |  | 
2 | O=CNc1cnc(-c2ccccc2)n(CC(=O)NC(Cc2ccccc2)C(=O)C(=O)CCCOc2ccccn2)c1=O (stereo not drawn) [Compound No. 10, 2-(5-formylamino-6-oxo-2-phenyl-1,6-dihydropyrimidin-1-yl)-N-[2,3-dioxo-1-phenylmethyl-6-(2-pyridyloxy)]hexylacetamide] |  | 4.88 ± 0.53 | 1.78 ± 0.12 | 30.9 ± 8.8 | 41.6 ± 1.1 | 10.5 ± 1.8 | 13.6 ± 2.0 | 38.4 ± 2.0 | no toxicological change
